The record followed here is patent US11052065B2, “Compositions and methods for treating cancer with a combination of programmed death receptor (PD-1) antibodies and a CXCR2 antagonist” (Merck Sharp & Dohme Corp., priority 2017, dated 2021).

The assay relates to B16-F10 melanoma tumor. The experiment in a line: Anti-tumor efficacy in mouse B16-F10 melanoma syngeneic tumor model. It is filed as in vivo, C57Bl/6 mice. Conditions: single agent treatment groups (navarixin 300 mg/kg bid + isotype control; anti-PD-1 10 mg/kg + vehicle); 12 mice per group; FIGS. 3 and 4. On the procedure: The combination anti-tumor efficacy of a CXCR2 antagonist and anti-mouse PD-1 antibody muDX400 was assessed in the B16-F10 melanoma tumor model, syngeneic to the C57Bl/6 strain. This experiment compared the anti-tumor response of tumor-bearing mice to treatment with one of three regimens: monotherapy with a murine anti-mouse PD-1 monoclonal antibody (Anti-PD-1), monotherapy with a CXCR2 antagonist (navarixin) and combination therapy with these two agents administered concurrently.
Tumor-bearing mice for this study were initiated by implanting 0.4×10^6 log-phase and sub-confluent B16-F10 cells on the right lower dorsal flank of 7-8 week old female C57Bl/6 mice with an average body weight of 18 grams. When the mean tumor volume in these mice reached ˜70 cubic mm (50 mm^3-80 mm^3), the tumor-bearing mice were randomized to 5 treatment groups of 12 mice per group:
(1) Isotype Control+Vehicle;
(2) Isotype Control+Navarixin (bid);
(4) Anti-PD-1+Navarixin (bid) and;
(5) Anti-PD-1+Navarixin (qd).
The monoclonal antibody against murine PD-1 was of the isotype IgG1. The isotype control was a mouse monoclonal antibody specific for adenoviral hexon 25 and was of the isotype IgG1. […] The tumor volume was assessed using Vernier calipers.

`CC[C@@H](Nc1c(Nc2cccc(C(=O)N(C)C)c2O)c(=O)c1=O)c1ccc(C)o1` [navarixin, 2-hydroxy-N,N-dimethyl-3-{2-[[(R)-1-(5-methylfuran-2-yl)propyl]amino]-3,4-dioxocyclobut-1-enylamino}benzamide]: the “complete and partial regressions” value was “not observed”.
